Results published in patent publication US11517018B2, “Herbicidal composition comprising cinmethylin and saflufenacil” (BASF Agro B.V., priority 2015, dated 2022).
Values joined by “and” are separate entries in the source; they are usually repeats but may differ in a detail not shown here. Equal entries are not always repeated.

Legend:
Type in all cases: in vivo
Conditions in all cases: 20 DAT
[1] = system: Digitaria sanguinalis; experiment: Greenhouse postemergence herbicidal activity, DIGSA
Protocol: (§1) The test plants have been seeded, separately for each species, in plastic containers in sandy loamy soil containing 5% of organic matter.
(§2) For the post emergence treatment, the plants were first grown to the 2 leaf station (GS 12). Here, the herbicidal compositions were suspended or emulsified in water as distribution medium and sprayed using finely distributing nozzels.
(§3) The plants have been cultivated due to their individual requirements at 10-25° C. and 20-35° C. The plants were irrigated due to their necessity.
(§4) In the following experiments, the herbicidal activity for the individual herbicidal compositions (solo and mixture applications) was assessed 20 days after treatment (DAT).
(§5) The evaluation for the damage on undesired weeds caused by the chemical compositions was carried out using a scale from 0 to 100%, compared to the untreated control plants. Here, 0 means no damage and 100 means complete destruction of the plants.
(§6) E=X+Y−(X·Y/100) where • X=effect in percent using herbicide A at an application rate a; • Y=effect in percent using herbicide B at application rate b; • E=expected effect (in %) of herbicide A+herbicide B at application rates a+b.
(§7) The value E corresponds to the effect (plant damage or injury) which is to be expected if the activity of the individual compounds is additive. If the observed effect is higher than the value E calculated according to the Colby equation, a synergistic effect is present.

[2] = system: Papaver rhoeas; experiment: Greenhouse preemergence herbicidal activity, PAPRH
Protocol: as §1
(§8) The containers were irrigated gently to promote germination and growth and subsequently covered with transparent plastic hoods until the plants had rooted.
as §3, §4, §5, §6, §7

[3] = system: Sorghum halepense; experiment: Greenhouse preemergence herbicidal activity, SORHA
Protocol: as §1, §8, §3, §4, §5, §6, §7

[4] = system: Abutilon theophrasti; experiment: Greenhouse preemergence herbicidal activity, ABUTH
Protocol: as §1, §8, §3, §4, §5, §6, §7

[5] = system: Lolium multiflorum; experiment: Greenhouse preemergence herbicidal activity, LOLMU
Protocol: as §1, §8, §3, §4, §5, §6, §7

[6] = system: Lolium multiflorum; experiment: Greenhouse postemergence herbicidal activity, LOLMU
Protocol: as §1, §2, §3, §4, §5, §6, §7

[7] = system: Chenopodium album; experiment: Greenhouse preemergence herbicidal activity, CHEAL
Protocol: as §1, §8, §3, §4, §5, §6, §7

[8] = system: Sorghum halepense; experiment: Greenhouse postemergence herbicidal activity, SORHA
Protocol: as §1, §2, §3, §4
The evaluation for the damage on undesired weeds caused by the chemical compositions was carried out using a scale from 0 to 100%, compared to the untreated control plants. Here, 0 means no damage and 100 means complete destruction of the plants. […]
as §7

[9] = system: Alopecurus myosuroides; experiment: Greenhouse preemergence herbicidal activity, ALOMY
Protocol: as §1, §8, §3, §4, §5, §6, §7

[10] = system: Avena fatua; experiment: Greenhouse postemergence herbicidal activity, AVEFA
Protocol: as §1, §2, §3, §4, §5, §6, §7

[11] = system: Polygonum convolvulus; experiment: Greenhouse preemergence herbicidal activity, POLCO
Protocol: as §1, §8, §3, §4, §5, §6, §7

[12] = system: Geranium dissectum; experiment: Greenhouse preemergence herbicidal activity, GERDI
Protocol: as §1, §8, §3, §4, §5, §6, §7

[13] = system: Galium aparine; experiment: Greenhouse preemergence herbicidal activity, GALAP
Protocol: as §1, §8, §3, §4, §5, §6, §7

[14] = system: Setaria viridis; experiment: Greenhouse preemergence herbicidal activity, SETVI
Protocol: as §1, §8, §3, §4, §5, §6, §7

[15] = system: Avena fatua; experiment: Greenhouse preemergence herbicidal activity, AVEFA
Protocol: as §1, §8, §3, §4, §5, §6, §7

[16] = system: Stellaria media; experiment: Greenhouse postemergence herbicidal activity, STEME
Protocol: as §1, §2, §3, §4, §5, §6, §7

[17] = system: Stellaria media; experiment: Greenhouse preemergence herbicidal activity, STEME
Protocol: as §1, §8, §3, §4, §5, §6, §7

[18] = saflufenacil solo 0.625 g ai/ha

With `Cc1ccccc1CO[C@@H]1C[C@@]2(C(C)C)CC[C@@]1(C)O2` (racemic) [herbicide A, (±)-2-exo-(2-Methylbenzyloxy)-1-methyl-4-isopropyl-7-oxabicyclo[2.2.1]heptane] the herbicidal activity ([1]; herbicide A solo 87.5 g ai/ha) was 65%, the herbicidal activity ([1]; herbicide A solo 125 g ai/ha) was 85% and the herbicidal activity ([2]; herbicide A solo 25 g ai/ha) was 0%. The herbicidal activity ([2]; herbicide A solo 31.25 g ai/ha) was 65%, the herbicidal activity ([2]; herbicide A solo 50 g ai/ha) was 0% and the herbicidal activity ([3]; herbicide A solo 50 g ai/ha) was 95%. It also gave a herbicidal activity ([3]; herbicide A solo 100 g ai/ha) of 98%, a herbicidal activity ([3]; herbicide A solo 200 g ai/ha) of 98% and a herbicidal activity ([4]; herbicide A solo 31.25 g ai/ha) of 35%. It also gave a herbicidal activity ([4]; herbicide A solo 50 g ai/ha) of 0%, a herbicidal activity ([4]; herbicide A solo 62.5 g ai/ha) of 40% and a herbicidal activity ([4]; herbicide A solo 100 g ai/ha) of 0%. The herbicidal activity ([5]; herbicide A solo 25 g ai/ha) was 50%, the herbicidal activity ([5]; herbicide A solo 62.5 g ai/ha) was 30% and the herbicidal activity ([5]; herbicide A solo 100 g ai/ha) was 95%. It also gave a herbicidal activity ([5]; herbicide A solo 125 g ai/ha) of 85%, a herbicidal activity ([5]; herbicide A solo 200 g ai/ha) of 98% and a herbicidal activity ([5]; herbicide A solo 250 g ai/ha) of 98%. It also gave a herbicidal activity ([5]; herbicide A solo 500 g ai/ha) of 95%, a herbicidal activity ([6]; herbicide A solo 43.8 g ai/ha) of 0% and a herbicidal activity ([6]; herbicide A solo 62.5 g ai/ha) of 0%. The herbicidal activity ([6]; herbicide A solo 87.5 g ai/ha) was 0%, the herbicidal activity ([6]; herbicide A solo 125 g ai/ha) was 0% and the herbicidal activity ([6]; herbicide A solo 350 g ai/ha) was 75%. For the same compound, the herbicidal activity ([7]; CHEAI, herbicide A solo 62.5 g ai/ha) was 40%, the herbicidal activity ([7]; CHEAL, herbicide A solo 125 g ai/ha) was 95% and the herbicidal activity ([7]; CHEAL, herbicide A solo 500 g ai/ha) was 85%. For the same compound, the herbicidal activity ([8]; herbicide A solo 350 g ai/ha) was 70%, the herbicidal activity ([9]; herbicide A solo 31.25 g ai/ha) was 95% and the herbicidal activity ([9]; herbicide A solo 62.5 g ai/ha) was 95% and 98%. The herbicidal activity ([10]; herbicide A solo 43.8 g ai/ha) was 25%, the herbicidal activity ([10]; herbicide A solo 87.5 g ai/ha) was 30% and the herbicidal activity ([10]; herbicide A solo 350 g ai/ha) was 70%. For the same compound, the herbicidal activity ([11]; herbicide A solo 25 g ai/ha) was 0%, the herbicidal activity ([11]; herbicide A solo 50 g ai/ha) was 0% and the herbicidal activity ([11]; herbicide A solo 62.5 g ai/ha) was 0%. The herbicidal activity ([12]; herbicide A solo 25 g ai/ha) was 50%, the herbicidal activity ([12]; herbicide A solo 125 g ai/ha) was 80% and the herbicidal activity ([13]; herbicide A solo 25 g ai/ha) was 0%. It also gave a herbicidal activity ([13]; herbicide A solo 50 g ai/ha) of 0%, a herbicidal activity ([13]; herbicide A solo 125 g ai/ha) of 65% and a herbicidal activity ([13]; herbicide A solo 200 g ai/ha) of 30%. The herbicidal activity ([14]; herbicide A solo 31.25 g ai/ha) was 95%, the herbicidal activity ([14]; herbicide A solo 62.5 g ai/ha) was 90% and the herbicidal activity ([14]; herbicide A solo 125 g ai/ha) was 95%. For the same compound, the herbicidal activity ([14]; herbicide A solo 250 g ai/ha) was 98%, the herbicidal activity ([15]; herbicide A solo 31.25 g ai/ha) was 30% and the herbicidal activity ([15]; herbicide A solo 50 g ai/ha) was 0%. It also gave a herbicidal activity ([15]; herbicide A solo 100 g ai/ha) of 20%, a herbicidal activity ([15]; herbicide A solo 125 g ai/ha) of 35% and a herbicidal activity ([15]; herbicide A solo 200 g ai/ha) of 50%. For the same compound, the herbicidal activity ([15]; herbicide A solo 250 g ai/ha) was 60% and 70%, the herbicidal activity ([15]; herbicide A solo 500 g ai/ha) was 80% and the herbicidal activity ([16]; herbicide A solo 43.8 g ai/ha) was 0%. The herbicidal activity ([16]; herbicide A solo 62.5 g ai/ha) was 25%, the herbicidal activity ([17]; herbicide A solo 31.25 g ai/ha) was 40% and the herbicidal activity ([17]; herbicide A solo 50 g ai/ha) was 20%.
Work on `CC(C)N(C)S(=O)(=O)NC(=O)c1cc(-n2c(=O)cc(C(F)(F)F)n(C)c2=O)c(F)cc1Cl` [saflufenacil, N′-{2-chloro-4-fluoro-5-[1,2,3,6-tetrahydro-3-methyl-2,6-dioxo-4-(trifluoromethyl)pyrimidin-1-yl]benzoyl}-N-isopropyl-N-methylsulfamide] yielded a herbicidal activity ([1]; saflufenacil solo 1.25 g ai/ha) of 75%, a herbicidal activity ([2]; saflufenacil solo 3.13 g ai/ha) of 95% and a herbicidal activity ([2]; saflufenacil solo 4.4 g ai/ha) of 85%. It also gave a herbicidal activity ([2]; saflufenacil solo 6.25 g ai/ha) of 90%, a herbicidal activity ([3]; saflufenacil solo 6.25 g ai/ha) of 0% and a herbicidal activity ([3]; saflufenacil solo 12.5 g ai/ha) of 10%. The herbicidal activity ([3]; saflufenacil solo 25 g ai/ha) was 30%, the herbicidal activity ([4]; saflufenacil solo 4.4 g ai/ha) was 65% and the herbicidal activity ([4]; saflufenacil solo 6.25 g ai/ha) was 98%. It also gave a herbicidal activity ([4]; saflufenacil solo 8.8 g ai/ha) of 85%, a herbicidal activity ([4]; saflufenacil solo 12.5 g ai/ha) of 98% and a herbicidal activity ([5]; saflufenacil solo 3.13 g ai/ha) of 0%. For the same compound, the herbicidal activity ([5]; saflufenacil solo 12.5 g ai/ha) was 0%, the herbicidal activity [6, 18] was 0% and the herbicidal activity ([6]; saflufenacil solo 1.25 g ai/ha) was 0%. For the same compound, the herbicidal activity ([6]; saflufenacil solo 5 g ai/ha) was 50%, the herbicidal activity ([7]; CHEAI, saflufenacil solo 25 g ai/ha) was 90% and the herbicidal activity ([7]; CHEAL, saflufenacil solo 25 g ai/ha) was 90%. For the same compound, the herbicidal activity ([8]; saflufenacil solo 5 g ai/ha) was 65%, the herbicidal activity ([9]; saflufenacil solo 4.4 g ai/ha) was 0% and the herbicidal activity ([9]; saflufenacil solo 8.8 g ai/ha) was 0%. It also gave a herbicidal activity ([9]; saflufenacil solo 25 g ai/ha) of 0%, a herbicidal activity [10, 18] of 0% and a herbicidal activity ([10]; saflufenacil solo 1.25 g ai/ha) of 0%. For the same compound, the herbicidal activity ([10]; saflufenacil solo 5 g ai/ha) was 0%, the herbicidal activity ([11]; saflufenacil solo 3.13 g ai/ha) was 20% and the herbicidal activity ([11]; saflufenacil solo 6.25 g ai/ha) was 98%. The herbicidal activity ([11]; saflufenacil solo 8.8 g ai/ha) was 90%, the herbicidal activity ([12]; saflufenacil solo 3.13 g ai/ha) was 20% and the herbicidal activity ([12]; saflufenacil solo 17.5 g ai/ha) was 80%. For the same compound, the herbicidal activity ([13]; saflufenacil solo 3.13 g ai/ha) was 0%, the herbicidal activity ([13]; saflufenacil solo 6.25 g ai/ha) was 20% and the herbicidal activity ([13]; saflufenacil solo 17.5 g ai/ha) was 95%. The herbicidal activity ([13]; saflufenacil solo 25 g ai/ha) was 98%, the herbicidal activity ([14]; saflufenacil solo 4.4 g ai/ha) was 0% and the herbicidal activity ([14]; saflufenacil solo 25 g ai/ha) was 60%. For the same compound, the herbicidal activity ([14]; saflufenacil solo 50 g ai/ha) was 65%, the herbicidal activity ([15]; saflufenacil solo 4.4 g ai/ha) was 0% and the herbicidal activity ([15]; saflufenacil solo 6.25 g ai/ha) was 0%. For the same compound, the herbicidal activity ([15]; saflufenacil solo 8.8 g ai/ha) was 0%, the herbicidal activity ([15]; saflufenacil solo 12.5 g ai/ha) was 0% and the herbicidal activity ([15]; saflufenacil solo 35 g ai/ha) was 20%. The herbicidal activity ([15]; saflufenacil solo 50 g ai/ha) was 0%, the herbicidal activity [16, 18] was 85% and the herbicidal activity ([17]; saflufenacil solo 4.4 g ai/ha) was 90%. The herbicidal activity ([17]; saflufenacil solo 6.25 g ai/ha) was 95%.
